Data taken from ChEMBL document CHEMBL3885881, “DrugMatrix”.

Organism: Rattus norvegicus
Assay: DrugMatrix - Regimen: Daily Repeat
Type: toxicity, organism-based, Sprague-Dawley
Set-up: regimen Daily Repeat, gender Male, age 6-8 weeks
Conditions: in vivo, po, route oral GAVAGE, […]; for CHLORIDE / CHOLESTEROL / CREATINE PHOSPHOKINASE / CREATININE / LACTATE DEHYDROGENASE / LIPASE / PHOSPHORUS / POTASSIUM / SODIUM / TOTAL BILIRUBIN / URIC ACID / ALANINE AMINOTRANSFERASE / ALBUMIN / ALKALINE PHOSPHATASE / ASPARTATE AMINOTRANSFERASE / BLOOD UREA NITROGEN / CARBON DIOXIDE: tissue Plasma; for ABSOLUTE BASOPHIL / ABSOLUTE EOSINOPHIL / ABSOLUTE LYMPHOCYTE / ABSOLUTE MONOCYTE / ABSOLUTE SEGMENTED NEUTROPHIL / BASOPHIL / EOSINOPHIL / ERYTHROCYTE COUNT / HEMATOCRIT / HEMOGLOBIN / LEUKOCYTE COUNT / LYMPHOCYTE / MEAN CORPUSCULAR HEMOGLOBIN / MEAN CORPUSCULAR HEMOGLOBIN CONCENTRATION / MEAN CORPUSCULAR VOLUME / NEUTROPHIL / NUCLEATED RED BLOOD CELLS / PLATELET COUNT: tissue Blood
[1] = 10 mg/kg, 120 h, dose level High, time 5 day
[2] = 72 h, dose 3.5 mg/Kg, dose level Low, time 3 day
[3] = 120 h, dose 3.5 mg/Kg, dose level High, time 5 day
[4] = 120 h, dose 3.5 mg/Kg, dose level Low, time 5 day
[5] = dose 3.5 mg/Kg, dose level High, time 28 day

O=C(O)Cc1ccccc1Nc1c(Cl)cccc1Cl [DICLOFENAC]
CHLORIDE [1]: 99 MEQ/L
CHOLESTEROL [1]: 69.33 mg/dL
CREATINE PHOSPHOKINASE [1]: 210.67 u/L
CREATININE [1]: 0.1 mg/dL
LACTATE DEHYDROGENASE [1]: 77.33 u/L
LIPASE [1]: 9 u/L
PHOSPHORUS [1]: 9.63 mg/dL
POTASSIUM [1]: 5.24 MEQ/L
SODIUM [1]: 140.7 MEQ/L
TOTAL BILIRUBIN [1]: 0.1 mg/dL
URIC ACID [1]: 0.57 mg/dL
ABSOLUTE BASOPHIL [2]: 0 CELLS/uL
ABSOLUTE EOSINOPHIL [2]: 99.33 CELLS/uL
ABSOLUTE LYMPHOCYTE [2]: 11383.33 CELLS/uL
ABSOLUTE MONOCYTE [2]: 144 CELLS/uL
ABSOLUTE SEGMENTED NEUTROPHIL [2]: 540 CELLS/uL
BASOPHIL [2]: 0%
EOSINOPHIL [2]: 0.67%
ERYTHROCYTE COUNT [2]: 5.83 x10E6/uL
HEMATOCRIT [2]: 36.37%
HEMOGLOBIN [2]: 14 G/DL
LEUKOCYTE COUNT [2]: 12.17 x10E3/uL
LYMPHOCYTE [2]: 92.67%
MEAN CORPUSCULAR HEMOGLOBIN [2]: 24.03 pg
MEAN CORPUSCULAR HEMOGLOBIN CONCENTRATION [2]: 38.47 G/DL
MEAN CORPUSCULAR VOLUME [2]: 62.37 fL
NEUTROPHIL [2]: 5.33%
NUCLEATED RED BLOOD CELLS [2]: 0 /100WBC
PLATELET COUNT [2]: 741.67 x10E3/uL
ALANINE AMINOTRANSFERASE [2]: 65.67 u/L
ALBUMIN [2]: 4.03 G/DL
ALKALINE PHOSPHATASE [2]: 385.67 u/L
ASPARTATE AMINOTRANSFERASE [2]: 76.33 u/L
BLOOD UREA NITROGEN [2]: 14 mg/dL
CARBON DIOXIDE [2]: 34 mmol/L
CHLORIDE [2]: 101 MEQ/L
CHOLESTEROL [2]: 82.33 mg/dL
CREATINE PHOSPHOKINASE [2]: 146 u/L
CREATININE [2]: 0.13 mg/dL
LACTATE DEHYDROGENASE [2]: 92.67 u/L
LIPASE [2]: 12.33 u/L
PHOSPHORUS [2]: 9.37 mg/dL
POTASSIUM [2]: 5.57 MEQ/L
SODIUM [2]: 145.37 MEQ/L
TOTAL BILIRUBIN [2]: 0.2 mg/dL
URIC ACID [2]: 0.93 mg/dL
BASOPHIL [3]: 0.32%
EOSINOPHIL [3]: 0.48%
ERYTHROCYTE COUNT [3]: 7.46 x10E6/uL
HEMATOCRIT [3]: 47.98%
HEMOGLOBIN [3]: 15.12 G/DL
LEUKOCYTE COUNT [3]: 9.78 x10E3/uL
LYMPHOCYTE [3]: 81.22%
MEAN CORPUSCULAR HEMOGLOBIN [3]: 20.28 pg
MEAN CORPUSCULAR HEMOGLOBIN CONCENTRATION [3]: 31.52 G/DL
MEAN CORPUSCULAR VOLUME [3]: 64.32 fL
NEUTROPHIL [3]: 15.22%
PLATELET COUNT [3]: 1323.2 x10E3/uL
ABSOLUTE BASOPHIL [4]: 0 CELLS/uL
ABSOLUTE EOSINOPHIL [4]: 66 CELLS/uL
ABSOLUTE LYMPHOCYTE [4]: 7679.67 CELLS/uL
ABSOLUTE MONOCYTE [4]: 26 CELLS/uL
ABSOLUTE SEGMENTED NEUTROPHIL [4]: 795 CELLS/uL
BASOPHIL [4]: 0%
EOSINOPHIL [4]: 0.67%
ERYTHROCYTE COUNT [4]: 5.41 x10E6/uL
HEMATOCRIT [4]: 32.77%
HEMOGLOBIN [4]: 13.13 G/DL
LEUKOCYTE COUNT [4]: 8.57 x10E3/uL
LYMPHOCYTE [4]: 90%
MEAN CORPUSCULAR HEMOGLOBIN [4]: 24.33 pg
MEAN CORPUSCULAR HEMOGLOBIN CONCENTRATION [4]: 40.1 G/DL
MEAN CORPUSCULAR VOLUME [4]: 60.7 fL
NEUTROPHIL [4]: 9%
NUCLEATED RED BLOOD CELLS [4]: 0.33 /100WBC
PLATELET COUNT [4]: 1098.67 x10E3/uL
ALANINE AMINOTRANSFERASE [3]: 32 u/L
ALBUMIN [3]: 3.72 G/DL
ALKALINE PHOSPHATASE [3]: 340 u/L
ASPARTATE AMINOTRANSFERASE [3]: 77.6 u/L
BLOOD UREA NITROGEN [3]: 6.8 mg/dL
CHLORIDE [3]: 110 MEQ/L
CHOLESTEROL [3]: 66.4 mg/dL
CREATINE PHOSPHOKINASE [3]: 178.25 u/L
CREATININE [3]: 0.26 mg/dL
PHOSPHORUS [3]: 13.9 mg/dL
POTASSIUM [3]: 6.42 MEQ/L
SODIUM [3]: 150.8 MEQ/L
TOTAL BILIRUBIN [3]: 0.16 mg/dL
ALANINE AMINOTRANSFERASE [4]: 70.33 u/L
ALBUMIN [4]: 4 G/DL
ALKALINE PHOSPHATASE [4]: 422.67 u/L
ASPARTATE AMINOTRANSFERASE [4]: 77.67 u/L
CARBON DIOXIDE [4]: 32 mmol/L
CHLORIDE [4]: 99.5 MEQ/L
CHOLESTEROL [4]: 58.67 mg/dL
CREATININE [4]: 0.13 mg/dL
LACTATE DEHYDROGENASE [4]: 79 u/L
LIPASE [4]: 12.33 u/L
PHOSPHORUS [4]: 9.27 mg/dL
POTASSIUM [4]: 5.62 MEQ/L
SODIUM [4]: 142.7 MEQ/L
TOTAL BILIRUBIN [4]: 0.2 mg/dL
URIC ACID [4]: 0.5 mg/dL
BASOPHIL [5]: 0.51%
EOSINOPHIL [5]: 0.62%
ERYTHROCYTE COUNT [5]: 8.14 x10E6/uL
HEMATOCRIT [5]: 48.9%
HEMOGLOBIN [5]: 15.9 G/DL
LEUKOCYTE COUNT [5]: 10.63 x10E3/uL
LYMPHOCYTE [5]: 82.51%
MEAN CORPUSCULAR HEMOGLOBIN [5]: 19.56 pg
MEAN CORPUSCULAR HEMOGLOBIN CONCENTRATION [5]: 32.5 G/DL
MEAN CORPUSCULAR VOLUME [5]: 60.18 fL
NEUTROPHIL [5]: 13.48%
PLATELET COUNT [5]: 1264.5 x10E3/uL
ALANINE AMINOTRANSFERASE [5]: 29.7 u/L
ALBUMIN [5]: 3.93 G/DL
ALKALINE PHOSPHATASE [5]: 205 u/L
ASPARTATE AMINOTRANSFERASE [5]: 68.5 u/L
BLOOD UREA NITROGEN [5]: 12.1 mg/dL
CHLORIDE [5]: 109.6 MEQ/L
CHOLESTEROL [5]: 55.2 mg/dL
CREATINE PHOSPHOKINASE [5]: 206.4 u/L
CREATININE [5]: 0.51 mg/dL
PHOSPHORUS [5]: 11.24 mg/dL
POTASSIUM [5]: 6.38 MEQ/L
SODIUM [5]: 154.6 MEQ/L
TOTAL BILIRUBIN [5]: 0.21 mg/dL
